Data published in ChEMBL document CHEMBL1909046, “DrugMatrix in vitro pharmacology data”.

What follows are compounds tested against T1, Receptor-type tyrosine-protein phosphatase C (Homo sapiens, UniProt P08575) (assay: not given). Settings: not given.
T1 sequence (P08575 whole entry): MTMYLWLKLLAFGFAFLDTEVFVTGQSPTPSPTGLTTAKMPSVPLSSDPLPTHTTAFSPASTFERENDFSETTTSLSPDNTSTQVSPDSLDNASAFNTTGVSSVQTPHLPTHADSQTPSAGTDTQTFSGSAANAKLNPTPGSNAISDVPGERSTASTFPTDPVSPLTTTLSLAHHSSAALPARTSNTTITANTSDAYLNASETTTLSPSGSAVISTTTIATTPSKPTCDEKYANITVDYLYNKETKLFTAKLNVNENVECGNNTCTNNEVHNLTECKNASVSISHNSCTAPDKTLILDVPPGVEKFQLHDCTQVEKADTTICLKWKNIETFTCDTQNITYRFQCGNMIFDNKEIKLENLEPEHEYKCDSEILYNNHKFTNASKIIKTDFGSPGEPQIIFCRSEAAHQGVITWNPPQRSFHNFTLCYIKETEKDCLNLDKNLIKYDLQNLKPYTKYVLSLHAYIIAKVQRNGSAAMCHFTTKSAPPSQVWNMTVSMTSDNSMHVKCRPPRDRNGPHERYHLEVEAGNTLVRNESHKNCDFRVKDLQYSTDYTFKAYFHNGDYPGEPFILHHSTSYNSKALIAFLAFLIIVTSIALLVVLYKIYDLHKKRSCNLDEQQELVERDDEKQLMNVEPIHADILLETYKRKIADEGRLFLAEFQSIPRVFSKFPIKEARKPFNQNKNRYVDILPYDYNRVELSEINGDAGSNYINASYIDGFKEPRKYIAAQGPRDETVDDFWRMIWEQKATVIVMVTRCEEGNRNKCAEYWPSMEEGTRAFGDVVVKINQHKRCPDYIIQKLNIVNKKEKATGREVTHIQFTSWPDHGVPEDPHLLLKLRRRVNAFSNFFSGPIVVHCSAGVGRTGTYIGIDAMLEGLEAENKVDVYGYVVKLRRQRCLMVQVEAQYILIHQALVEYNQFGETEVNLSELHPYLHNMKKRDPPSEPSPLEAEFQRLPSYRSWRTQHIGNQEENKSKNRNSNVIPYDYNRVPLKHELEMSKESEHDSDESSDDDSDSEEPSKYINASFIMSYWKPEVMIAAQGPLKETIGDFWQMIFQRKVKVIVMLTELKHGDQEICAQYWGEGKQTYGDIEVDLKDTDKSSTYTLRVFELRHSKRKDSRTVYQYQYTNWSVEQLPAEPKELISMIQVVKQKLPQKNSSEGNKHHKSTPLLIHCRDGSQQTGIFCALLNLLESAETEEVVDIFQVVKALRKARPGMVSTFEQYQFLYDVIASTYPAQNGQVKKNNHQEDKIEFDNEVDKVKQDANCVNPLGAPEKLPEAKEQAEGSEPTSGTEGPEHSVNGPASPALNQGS
Set-up: species or system Escherichia coli

Row | SMILES | IC50 | Ki
1 | CN(Cc1ccc(C(C)(C)C)cc1)Cc1cccc2ccccc12 [BUTENAFINE] | Not Active | –
2 | Nc1nc2c(ncn2COCCO)c(=O)[nH]1 [ACYCLOVIR] | Not Active | –
3 | c1ccc2c(c1)c1cccc3ccc4cccc2c4c31 [BENZO[E]PYRENE] | Not Active | –
4 | Cc1ccc(N(CC2=NCCN2)c2cccc(O)c2)cc1 [PHENTOLAMINE] | Not Active | –
5 | CC(C)(Oc1ccc(Cl)cc1)C(=O)O [CLOFIBRIC ACID] | Not Active | –
6 | NC(=O)N1c2ccccc2CCc2ccccc21 | Not Active | –
7 | COc1ccc(C[C@H]2NC[C@H](O)[C@H]2OC(C)=O)cc1 [ANISOMYCIN] | Not Active | Not Active
8 | O=C1CC[C@@H](N2C(=O)c3ccccc3C2=O)C(=O)N1 | Not Active | –
9 | Cc1c(O)c(=O)ccn1C [DEFERIPRONE] | Not Active | –
10 | CCOc1ccc(NC(C)=O)cc1 [PHENACETIN] | Not Active | –
11 | NC1=NC(=O)C(c2ccccc2)O1 (stereo not drawn) [PEMOLINE] | Not Active | –
12 | CCCN1C[C@H](CSC)C[C@@H]2c3cccc4[nH]cc(c34)C[C@H]21 [PERGOLIDE] | Not Active | –
13 | CN(C)CCCN1c2ccccc2Sc2ccc(Cl)cc21 [CHLORPROMAZINE] | Not Active | –

These compounds were tested against T2, Glucocorticoid receptor (Homo sapiens, UniProt P04150) (assay: not given). Settings: hela s3.
T2 sequence (P04150 whole entry): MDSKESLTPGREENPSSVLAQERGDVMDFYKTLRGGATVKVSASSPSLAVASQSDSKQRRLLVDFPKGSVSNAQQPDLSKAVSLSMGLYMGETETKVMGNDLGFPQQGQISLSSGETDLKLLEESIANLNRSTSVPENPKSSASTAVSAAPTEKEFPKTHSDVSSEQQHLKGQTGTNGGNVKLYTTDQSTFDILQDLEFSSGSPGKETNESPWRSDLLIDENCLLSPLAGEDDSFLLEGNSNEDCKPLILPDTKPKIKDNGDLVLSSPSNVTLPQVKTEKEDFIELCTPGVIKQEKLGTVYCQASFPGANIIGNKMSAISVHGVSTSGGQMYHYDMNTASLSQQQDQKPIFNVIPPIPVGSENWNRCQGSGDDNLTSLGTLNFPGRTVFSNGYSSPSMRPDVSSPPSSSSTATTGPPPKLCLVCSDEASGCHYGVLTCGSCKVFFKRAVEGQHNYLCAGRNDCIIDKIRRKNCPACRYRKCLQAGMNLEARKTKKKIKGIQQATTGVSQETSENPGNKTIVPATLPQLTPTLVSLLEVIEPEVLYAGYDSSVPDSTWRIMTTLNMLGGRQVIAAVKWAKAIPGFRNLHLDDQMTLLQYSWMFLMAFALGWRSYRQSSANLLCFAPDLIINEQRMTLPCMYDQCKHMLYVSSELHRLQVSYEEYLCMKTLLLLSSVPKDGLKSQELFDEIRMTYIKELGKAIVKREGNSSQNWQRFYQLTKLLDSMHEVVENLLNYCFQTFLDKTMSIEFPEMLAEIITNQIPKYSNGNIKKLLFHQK

Row | SMILES | IC50 | Ki
14 | CN(Cc1ccc(C(C)(C)C)cc1)Cc1cccc2ccccc12 [BUTENAFINE] | Not Active | –
15 | Nc1nc2c(ncn2COCCO)c(=O)[nH]1 [ACYCLOVIR] | Not Active | –
16 | c1ccc2c(c1)c1cccc3ccc4cccc2c4c31 [BENZO[E]PYRENE] | Not Active | –
17 | Cc1ccc(N(CC2=NCCN2)c2cccc(O)c2)cc1 [PHENTOLAMINE] | Not Active | –
18 | CC(C)(Oc1ccc(Cl)cc1)C(=O)O [CLOFIBRIC ACID] | Not Active | –
19 | NC(=O)N1c2ccccc2CCc2ccccc21 | Not Active | –
20 | COc1ccc(C[C@H]2NC[C@H](O)[C@H]2OC(C)=O)cc1 [ANISOMYCIN] | Not Active | Not Active
21 | O=C1CC[C@@H](N2C(=O)c3ccccc3C2=O)C(=O)N1 | Not Active | –
22 | Cc1c(O)c(=O)ccn1C [DEFERIPRONE] | Not Active | –
23 | CCOc1ccc(NC(C)=O)cc1 [PHENACETIN] | Not Active | –
24 | NC1=NC(=O)C(c2ccccc2)O1 (stereo not drawn) [PEMOLINE] | Not Active | –
25 | CCCN1C[C@H](CSC)C[C@@H]2c3cccc4[nH]cc(c34)C[C@H]21 [PERGOLIDE] | Not Active | –
26 | CN(C)CCCN1c2ccccc2Sc2ccc(Cl)cc21 [CHLORPROMAZINE] | Not Active | –

Each compound was assayed against D(3) dopamine receptor (Homo sapiens, UniProt P35462) (assay: DRUGMATRIX: Dopamine D3 radioligand binding (ligand: [3H] Spiperone)). Settings: cho.
Sequence of D(3) dopamine receptor (P35462 whole entry): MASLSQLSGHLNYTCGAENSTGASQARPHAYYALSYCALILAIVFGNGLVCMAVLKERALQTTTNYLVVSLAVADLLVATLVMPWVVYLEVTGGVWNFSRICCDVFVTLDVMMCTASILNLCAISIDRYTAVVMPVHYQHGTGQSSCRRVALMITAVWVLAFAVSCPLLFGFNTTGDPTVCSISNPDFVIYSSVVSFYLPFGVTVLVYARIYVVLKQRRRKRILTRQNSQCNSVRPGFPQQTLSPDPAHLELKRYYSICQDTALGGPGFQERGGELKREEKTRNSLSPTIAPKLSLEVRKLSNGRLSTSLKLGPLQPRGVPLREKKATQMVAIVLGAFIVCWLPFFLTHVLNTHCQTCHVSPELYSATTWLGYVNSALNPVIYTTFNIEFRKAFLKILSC
Format: cell membranes, CHO, Membrane

Row | SMILES | IC50 | Ki
27 | CN(Cc1ccc(C(C)(C)C)cc1)Cc1cccc2ccccc12 [BUTENAFINE] | Not Active | –
28 | Nc1nc2c(ncn2COCCO)c(=O)[nH]1 [ACYCLOVIR] | Not Active | –
29 | c1ccc2c(c1)c1cccc3ccc4cccc2c4c31 [BENZO[E]PYRENE] | Not Active | –
30 | Cc1ccc(N(CC2=NCCN2)c2cccc(O)c2)cc1 [PHENTOLAMINE] | Not Active | –
31 | CC(C)(Oc1ccc(Cl)cc1)C(=O)O [CLOFIBRIC ACID] | Not Active | –
32 | NC(=O)N1c2ccccc2CCc2ccccc21 | Not Active | –
33 | COc1ccc(C[C@H]2NC[C@H](O)[C@H]2OC(C)=O)cc1 [ANISOMYCIN] | Not Active | Not Active
34 | O=C1CC[C@@H](N2C(=O)c3ccccc3C2=O)C(=O)N1 | Not Active | –
35 | Cc1c(O)c(=O)ccn1C [DEFERIPRONE] | Not Active | –
36 | CCOc1ccc(NC(C)=O)cc1 [PHENACETIN] | Not Active | –
37 | NC1=NC(=O)C(c2ccccc2)O1 (stereo not drawn) [PEMOLINE] | Not Active | –

These compounds were tested against Aldo-keto reductase family 1 member B1 (Rattus norvegicus, UniProt P07943) (assay: biochemical). Settings: not given.
Format: tissue-based, Lens of camera-type eye

Row | SMILES | IC50 | Ki
38 | CN(Cc1ccc(C(C)(C)C)cc1)Cc1cccc2ccccc12 [BUTENAFINE] | Not Active | –
39 | Nc1nc2c(ncn2COCCO)c(=O)[nH]1 [ACYCLOVIR] | Not Active | –
40 | c1ccc2c(c1)c1cccc3ccc4cccc2c4c31 [BENZO[E]PYRENE] | Not Active | –
41 | Cc1ccc(N(CC2=NCCN2)c2cccc(O)c2)cc1 [PHENTOLAMINE] | Not Active | –
42 | CC(C)(Oc1ccc(Cl)cc1)C(=O)O [CLOFIBRIC ACID] | Not Active | –
43 | NC(=O)N1c2ccccc2CCc2ccccc21 | Not Active | –
44 | COc1ccc(C[C@H]2NC[C@H](O)[C@H]2OC(C)=O)cc1 [ANISOMYCIN] | Not Active | Not Active
45 | O=C1CC[C@@H](N2C(=O)c3ccccc3C2=O)C(=O)N1 | Not Active | –
46 | Cc1c(O)c(=O)ccn1C [DEFERIPRONE] | Not Active | –
47 | CCOc1ccc(NC(C)=O)cc1 [PHENACETIN] | Not Active | –
48 | NC1=NC(=O)C(c2ccccc2)O1 (stereo not drawn) [PEMOLINE] | Not Active | –
49 | CCCN1C[C@H](CSC)C[C@@H]2c3cccc4[nH]cc(c34)C[C@H]21 [PERGOLIDE] | Not Active | –
50 | CN(C)CCCN1c2ccccc2Sc2ccc(Cl)cc21 [CHLORPROMAZINE] | Not Active | –

What follows are compounds tested against Melanocortin receptor 5 (Homo sapiens, UniProt P33032) (assay: not given). Settings: hek293.
Sequence of Melanocortin receptor 5 (P33032 whole entry): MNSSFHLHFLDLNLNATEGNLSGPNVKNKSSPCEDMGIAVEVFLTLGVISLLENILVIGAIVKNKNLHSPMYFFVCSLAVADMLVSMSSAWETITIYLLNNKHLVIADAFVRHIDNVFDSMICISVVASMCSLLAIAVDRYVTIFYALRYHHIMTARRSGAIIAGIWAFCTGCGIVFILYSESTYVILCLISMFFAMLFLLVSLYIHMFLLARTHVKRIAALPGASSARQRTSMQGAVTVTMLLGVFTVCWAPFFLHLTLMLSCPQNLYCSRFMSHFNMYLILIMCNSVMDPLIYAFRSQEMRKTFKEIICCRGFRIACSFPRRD
Format: cell membranes, HEK293, Membrane

Row | SMILES | IC50 | Ki
51 | CN(Cc1ccc(C(C)(C)C)cc1)Cc1cccc2ccccc12 [BUTENAFINE] | Not Active | –
52 | Nc1nc2c(ncn2COCCO)c(=O)[nH]1 [ACYCLOVIR] | Not Active | –
53 | c1ccc2c(c1)c1cccc3ccc4cccc2c4c31 [BENZO[E]PYRENE] | Not Active | –
54 | Cc1ccc(N(CC2=NCCN2)c2cccc(O)c2)cc1 [PHENTOLAMINE] | Not Active | –
55 | CC(C)(Oc1ccc(Cl)cc1)C(=O)O [CLOFIBRIC ACID] | Not Active | –
56 | NC(=O)N1c2ccccc2CCc2ccccc21 | Not Active | –
57 | COc1ccc(C[C@H]2NC[C@H](O)[C@H]2OC(C)=O)cc1 [ANISOMYCIN] | Not Active | Not Active
58 | O=C1CC[C@@H](N2C(=O)c3ccccc3C2=O)C(=O)N1 | Not Active | –
59 | Cc1c(O)c(=O)ccn1C [DEFERIPRONE] | Not Active | –
60 | CCOc1ccc(NC(C)=O)cc1 [PHENACETIN] | Not Active | –
61 | NC1=NC(=O)C(c2ccccc2)O1 (stereo not drawn) [PEMOLINE] | Not Active | –
62 | CCCN1C[C@H](CSC)C[C@@H]2c3cccc4[nH]cc(c34)C[C@H]21 [PERGOLIDE] | Not Active | –

Same assay, conditions: read-out: IC50

Row | SMILES | IC50
63 | CN(C)CCCN1c2ccccc2Sc2ccc(Cl)cc21 [CHLORPROMAZINE] | 7.62 µM

Same assay, conditions: read-out: Ki

Row | SMILES | Ki
64 | CN(C)CCCN1c2ccccc2Sc2ccc(Cl)cc21 [CHLORPROMAZINE] | 7.15 µM

The compounds below were run against Mitogen-activated protein kinase 1 (Homo sapiens, UniProt P28482) (assay: DRUGMATRIX: Protein Serine/Threonine Kinase, ERK2 enzyme inhibition (substrate: Myelin Basic Protein)). Settings: Not Active = under 50% inhibition at 10 µM.
Sequence of Mitogen-activated protein kinase 1 (P28482 whole entry): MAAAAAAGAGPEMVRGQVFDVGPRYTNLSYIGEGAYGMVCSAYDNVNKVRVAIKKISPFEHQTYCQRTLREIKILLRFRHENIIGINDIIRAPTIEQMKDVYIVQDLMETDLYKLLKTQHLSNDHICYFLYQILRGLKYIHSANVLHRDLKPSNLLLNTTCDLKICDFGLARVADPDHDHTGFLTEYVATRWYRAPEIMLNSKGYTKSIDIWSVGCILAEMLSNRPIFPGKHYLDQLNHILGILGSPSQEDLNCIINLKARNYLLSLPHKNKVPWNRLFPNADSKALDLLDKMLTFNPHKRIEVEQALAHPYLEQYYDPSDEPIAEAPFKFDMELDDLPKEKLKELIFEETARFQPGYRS
Set-up: species or system Escherichia coli

Row | SMILES | IC50 | Ki
65 | CN(Cc1ccc(C(C)(C)C)cc1)Cc1cccc2ccccc12 [BUTENAFINE] | Not Active | –
66 | Nc1nc2c(ncn2COCCO)c(=O)[nH]1 [ACYCLOVIR] | Not Active | –
67 | c1ccc2c(c1)c1cccc3ccc4cccc2c4c31 [BENZO[E]PYRENE] | Not Active | –
68 | Cc1ccc(N(CC2=NCCN2)c2cccc(O)c2)cc1 [PHENTOLAMINE] | Not Active | –
69 | CC(C)(Oc1ccc(Cl)cc1)C(=O)O [CLOFIBRIC ACID] | Not Active | –
70 | NC(=O)N1c2ccccc2CCc2ccccc21 | Not Active | –
71 | COc1ccc(C[C@H]2NC[C@H](O)[C@H]2OC(C)=O)cc1 [ANISOMYCIN] | Not Active | Not Active
72 | O=C1CC[C@@H](N2C(=O)c3ccccc3C2=O)C(=O)N1 | Not Active | –
73 | Cc1c(O)c(=O)ccn1C [DEFERIPRONE] | Not Active | –
74 | CCOc1ccc(NC(C)=O)cc1 [PHENACETIN] | Not Active | –
75 | NC1=NC(=O)C(c2ccccc2)O1 (stereo not drawn) [PEMOLINE] | Not Active | –
76 | CCCN1C[C@H](CSC)C[C@@H]2c3cccc4[nH]cc(c34)C[C@H]21 [PERGOLIDE] | Not Active | –
77 | CN(C)CCCN1c2ccccc2Sc2ccc(Cl)cc21 [CHLORPROMAZINE] | Not Active | –
